Values quoted from earlier work in US20080299050A1, “TOPICAL THERAPIES FOR ORAL MUCOSITIS AND OTHER CONDITIONS” (DrugTech Corporation, priority 2006, published 2008).

Assays:
gingival wound = conditions: by mouth for up to 8 weeks prior to gingival excision
gingiva = conditions: administered systemically
[1] = very large dose applied topically to a pressure ulcer
[2] = system: human slin fibroblast cultures

Compound | gingival wound healing (gingival wound) | side effect (gingiva) | systemic absorption of phenyloin [1] | cell proliferation (enhancing effect) ([2]; higher concentration (25 or 50 μg/ml) or longer incubation time (25 h or 48 h)) | cell proliferation ([2]; low concentration (5 μg/ml) and short incubation time (3 h))
O=C1N=C([O-])NC1(c1ccccc1)c1ccccc1.[Na+] [phenyloin sodium] | greatly enhanced | gingival hyperplasia |  |  | 
O=C1NC(=O)C(c2ccccc2)(c2ccccc2)N1 [phenyloin, 5,5-diphenyl-2,4-imidazolidinedione] |  |  | little systemic absorption | reduced or reversed | enhanced
